Data taken from the supplement of paper PMC10307832.

Tests used:
Test in all cases: relative viability (nuclei count vs DMSO), 5 days (fraction); higher = more cells survive
Doxorubicin + Olaparib = compound: COc1cccc2c1C(=O)c1c(O)c3c(c(O)c1C2=O)C[C@@](O)(C(=O)CO)C[C@@H]3O[C@H]1C[C@H](N)[C@H](O)[C@H](C)O1 [Doxorubicin] + O=C(c1cc(Cc2n[nH]c(=O)c3ccccc23)ccc1F)N1CCN(C(=O)C2CC2)CC1 [Olaparib] (partner 8 µM)
Method in brief: (§1)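 Lung cancer cell lines in 1536-well plates got either a single drug or a fixed anchor-drug dose together with five library-drug doses (not always all listed) in √10 steps, by pin tool, on the day after seeding. Nuclei were counted after 5 days, and relative viability is the treated-to-vehicle ratio of nuclei counts. Values are medians of duplicate plates.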

Doxorubicin + Crizotinib = compound: COc1cccc2c1C(=O)c1c(O)c3c(c(O)c1C2=O)C[C@@](O)(C(=O)CO)C[C@@H]3O[C@H]1C[C@H](N)[C@H](O)[C@H](C)O1 [Doxorubicin] + C[C@@H](Oc1cc(-c2cnn(C3CCNCC3)c2)cnc1N)c1c(Cl)ccc(F)c1Cl [Crizotinib] (partner 1 µM)
Method in brief: as §1

BAY61-3606 + Linsitinib = compound: COC1=C(C=C(C=C1)C2=CC3=NC=CN3C(=N2)NC4=C(C=CC=N4)C(=O)N)OC [BAY61-3606] + C[C@]1(O)C[C@@H](c2nc(-c3ccc4ccc(-c5ccccc5)nc4c3)c3c(N)nccn32)C1 [Linsitinib] (partner 1 µM)
Method in brief: as §1

Doxorubicin + Pemetrexed = compound: COc1cccc2c1C(=O)c1c(O)c3c(c(O)c1C2=O)C[C@@](O)(C(=O)CO)C[C@@H]3O[C@H]1C[C@H](N)[C@H](O)[C@H](C)O1 [Doxorubicin] + Nc1nc2[nH]cc(CCc3ccc(C(=O)N[C@@H](CCC(=O)O)C(=O)O)cc3)c2c(=O)[nH]1 [Pemetrexed] (partner 0.2 µM)
Method in brief: as §1

Row | Cell Line | relative viability (Doxorubicin + Olaparib; first compound 0.001 µM) | relative viability (Doxorubicin + Olaparib; first compound 0.003162 µM) | relative viability (Doxorubicin + Olaparib; first compound 0.01 µM) | relative viability (Doxorubicin + Olaparib; first compound 0.03162 µM) | relative viability (Doxorubicin + Olaparib; first compound 0.1 µM) | relative viability (Doxorubicin + Crizotinib; first compound 0.001 µM) | relative viability (Doxorubicin + Crizotinib; first compound 0.003162 µM) | relative viability (Doxorubicin + Crizotinib; first compound 0.01 µM) | relative viability (Doxorubicin + Crizotinib; first compound 0.03162 µM) | relative viability (Doxorubicin + Crizotinib; first compound 0.1 µM) | relative viability (BAY61-3606 + Linsitinib; first compound 0.02 µM) | relative viability (BAY61-3606 + Linsitinib; first compound 0.06325 µM) | relative viability (BAY61-3606 + Linsitinib; first compound 0.2 µM) | relative viability (BAY61-3606 + Linsitinib; first compound 0.6325 µM) | relative viability (BAY61-3606 + Linsitinib; first compound 2 µM) | relative viability (Doxorubicin + Pemetrexed; first compound 0.001 µM) | relative viability (Doxorubicin + Pemetrexed; first compound 0.003162 µM) | relative viability (Doxorubicin + Pemetrexed; first compound 0.01 µM) | relative viability (Doxorubicin + Pemetrexed; first compound 0.03162 µM) | relative viability (Doxorubicin + Pemetrexed; first compound 0.1 µM)
1 | HCC-78 | 0.866 | 0.994 | 1.04 | 0.799 | 0.701 | 0.356 | 0.332 | 0.395 | 0.352 | 0.28 | 0.742 | 0.456 | 0.598 | 0.535 | 0.459 | 0.946 | 0.889 | 0.927 | 0.909 | 0.888
2 | EKVX | 0.862 | 0.882 | 0.767 | 0.849 | 0.734 | 0.865 | 1.02 | 0.792 | 1.02 | 0.948 | 1.12 | 0.981 | 0.99 | 0.946 | 0.935 | 0.336 | 0.404 | 0.426 | 0.45 | 0.257
3 | NCI-H1666 | – | 0.701 | 0.733 | 0.602 | 0.607 | 1.02 | 0.915 | 0.608 | 0.295 | 0.285 | 0.954 | – | 0.76 | 0.954 | 0.831 | – | 0.858 | 0.724 | 0.782 | 0.757
4 | NCI-H1734 | 0.294 | 0.689 | 0.644 | 0.435 | 0.565 | 0.714 | 0.788 | 0.583 | 0.517 | 0.588 | 0.827 | 0.853 | 0.849 | 0.866 | 0.607 | 0.468 | 0.404 | 0.398 | 0.448 | 0.421
5 | NCI-H596 | 0.593 | 0.667 | 0.685 | 0.647 | 0.651 | 0.984 | 1.13 | 0.916 | 0.91 | 0.933 | 1.16 | 0.962 | 1 | 1.02 | 0.954 | 0.499 | 0.505 | 0.526 | 0.473 | 0.486
6 | A-427 | 0.764 | 0.672 | 0.718 | 0.373 | 0.285 | 0.855 | 1.02 | 0.897 | 0.978 | 0.88 | 1.14 | 1.07 | 1.06 | 1.06 | 1.15 | 1.08 | 1.06 | 0.929 | 0.746 | 0.429
7 | NCI-H3122 | 0.535 | 0.616 | 0.58 | 0.62 | 0.634 | 0.247 | 0.302 | 0.295 | 0.257 | 0.282 | 1.08 | 1.08 | 0.974 | 0.924 | 0.918 | 0.203 | 0.208 | 0.334 | 0.194 | 0.174
8 | NCI-H1437 | 0.639 | 0.631 | 0.567 | 0.416 | 0.417 | 0.866 | 0.924 | 0.962 | 0.517 | 0.262 | 1.1 | 1.1 | 1.01 | 1.03 | 0.813 | 0.32 | 0.297 | 0.303 | 0.315 | 0.329
9 | SK-MES-1 | 0.659 | 0.534 | 0.266 | 0.2 | 0.146 | 1.08 | 1.05 | 0.97 | 0.871 | 0.865 | 1 | 1.13 | 1.09 | 1.09 | 0.989 | 0.926 | 0.899 | 0.872 | 0.291 | 0.234
10 | HCC-366 | 0.33 | 0.348 | 0.361 | 0.209 | 0.25 | – | 0.697 | 0.509 | 0.236 | 0.333 | 0.831 | 0.613 | 0.689 | 0.694 | 0.366 | 0.301 | 0.18 | 0.171 | 0.201 | 0.161
11 | NCI-H2347 | 0.6 | 0.562 | 0.544 | 0.516 | 0.55 | 0.869 | 0.735 | 0.735 | 0.603 | 0.503 | 1.03 | 0.97 | 0.978 | 1.03 | 0.898 | 0.417 | 0.424 | 0.42 | 0.507 | 0.463
12 | HARA | 1.05 | 0.8 | 0.722 | 0.718 | 0.759 | 1.04 | 1.04 | 1.03 | 1.01 | 0.959 | 1.03 | 1.01 | 0.972 | 1.06 | 0.931 | 0.22 | 0.257 | 0.338 | 0.259 | 0.268
13 | SW 1573 | 0.411 | 0.298 | 0.163 | 0.0977 | 0.047 | 0.905 | 0.794 | 0.85 | 0.687 | 0.69 | 0.821 | 0.762 | 0.803 | 0.674 | 0.625 | 0.869 | 0.807 | 0.263 | 0.144 | 0.105
14 | NCI-H1792 | 0.506 | 0.473 | 0.473 | 0.412 | 0.548 | 0.975 | 0.974 | 1.01 | 0.924 | 0.943 | 0.531 | 0.494 | 0.591 | 0.627 | 0.627 | 0.43 | 0.889 | 0.809 | 0.691 | 0.466
15 | HCC-827 | 0.653 | 0.65 | 0.66 | 0.62 | 0.579 | 0.982 | 0.993 | 0.913 | 0.955 | 0.908 | 0.971 | 0.959 | 0.973 | 1.05 | 0.966 | 0.272 | 0.281 | 0.22 | 0.247 | 0.261
